Test results from patent US12583866B2, “Pyrido[2,3-b][1,4]oxazines or tetrahydropyrido[2,3-b][1,4]oxazepines as IAP antagonists” (BEIGENE, LTD., priority 2020, dated 2026).
Where a name gives a salt, the structure may show the parent alone.

How the values were obtained:
[1] = biological target: T1, recombinant human cIAP1-BIR3 protein (Homo sapiens, UniProt Q13490); assay: Recombinant human c-IAP1-BIR3 biochemical assay (HTRF, peptide displacement); conditions: 1.2 nM cIAP1-BIR3, 3 nM AbuRPF-K(5-Fam)-NH2 peptide, read-out: Protein binding IC50 (nM) c-IAP1
T1 construct: recombinant human cIAP1-BIR3 protein; purchased Reaction biology APT-11-370
T1 sequence (Q13490 253-363 limits assumed): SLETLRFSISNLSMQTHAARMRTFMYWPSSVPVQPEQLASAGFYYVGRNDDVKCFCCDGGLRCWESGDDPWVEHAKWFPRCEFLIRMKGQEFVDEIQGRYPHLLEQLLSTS
Outline: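 HTRF peptide displacement: after 1 h compound pre-incubation (max 10 uM, 4-fold dilutions, 10 points) with 1.2 nM protein in HEPES pH 7.5 buffer, 3 nM 5-Fam-labelled AbuRPF-K peptide and Tb-anti-6His were each added for 1 h at room temperature. Inhibition taken from 520/490 nm ratio, fitted four-parameter logistic for IC50.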

[2] = biological target: T2, recombinant human cIAP2-BIR3 protein (Homo sapiens, UniProt Q13489); assay: Recombinant human c-IAP2-BIR3 biochemical assay (HTRF, peptide displacement); conditions: 3.7 nM cIAP2-BIR3, 3.7 nM AbuRPF-K(5-Fam)-NH2 peptide, read-out: Protein binding IC50 (nM) c-IAP2
T2 construct: recombinant human cIAP2-BIR3 protein; purchased Reaction biology APT-11-372
T2 sequence (Q13489 238-349 limits assumed): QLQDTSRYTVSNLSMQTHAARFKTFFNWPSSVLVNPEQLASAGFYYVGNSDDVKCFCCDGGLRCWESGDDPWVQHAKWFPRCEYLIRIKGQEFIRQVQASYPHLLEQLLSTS
Outline: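 HTRF peptide-displacement readout (ex337, em520/490 ratio) after sequential 1 h room-temperature steps: compound with 3.7 nM protein, then 3.7 nM 5-Fam-labelled AbuRPF peptide, then Tb-cryptate anti-6His antibody. Buffer pH 7.5 HEPES with NaCl, Tween-20, DTT; 10-point 4-fold dilutions from 10 uM; four-parameter logistic IC50.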

[3] = biological target: T3, recombinant human XIAP-BIR3 protein (Homo sapiens, UniProt P98170); assay: Recombinant human XIAP-BIR3 biochemical assay (HTRF, peptide displacement); conditions: 3.7 nM XIAP-BIR3, 7.6 nM AbuRPF-K(5-Fam)-NH2 peptide, read-out: Protein binding IC50 (nM) XIAP
T3 construct: recombinant human XIAP-BIR3 protein; purchased Reaction biology APT-11-374
T3 sequence (P98170 241-356 limits assumed): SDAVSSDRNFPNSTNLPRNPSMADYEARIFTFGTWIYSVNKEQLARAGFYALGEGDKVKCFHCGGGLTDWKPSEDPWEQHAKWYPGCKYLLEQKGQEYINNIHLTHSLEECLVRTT
Outline: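 HTRF peptide displacement with 7.6 nM 5-Fam-labelled AbuRPF peptide, anti-6His Tb donor and 3.7 nM recombinant XIAP-BIR3. Protein and compound (10-point, 4-fold from 10 µM) were preincubated 1 h RT in HEPES pH 7.5 buffer before each addition, each 1 h. IC50 by four-parameter fit of the 520/490 nm ratio.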

IC50 [1] [nM]	IC50 [2] [nM]	IC50 [3] [nM]	Structure (SMILES)
0.82	1.2	7.7	CC1COc2ncc(Cc3ccc(F)cc3)cc2N1C(=O)CN1C[C@@H](C)NC[C@@H]1CN1CCOC[C@H]1C (stereo partly drawn) [Compound 19, 1-(7-(4-fluorobenzyl)-2-methyl-2,3-dihydro-1H-pyrido[2,3-b][1,4]oxazin-1-yl)-2-((2R,5R)-5-methyl-2-(((R)-3-methylmorpholino)methyl)piperazin-1-yl)ethan-1-one]
47	108	543	C[C@@H]1CN(CC(=O)N2c3cc(Cc4ccc(F)cc4)c(CO)nc3OC[C@@H]2C)[C@@H](CN2CCOC[C@@H]2C(F)(F)F)CN1 [Compound 91B, 1-((S)-7-(4-fluorobenzyl)-6-(hydroxymethyl)-2-methyl-2,3-dihydro-1H-pyrido[2,3-b][1,4]oxazin-1-yl)-2-((2R,5R)-5-methyl-2-(((R)-3-(trifluoromethyl)morpholino)methyl)piperazin-1-yl)ethan-1-one]
0.2	0.28	2.6	C[C@@H]1CN(CC(=O)N2c3cc(Cc4ccc(F)cc4)c(C(=O)NCC4CCOCC4)nc3OC[C@@H]2C)[C@@H](CN2[C@H](C)COC[C@H]2C)CN1 [Example 77, (S)-1-(2-((2R,5R)-2-(((3R,5R)-3,5-dimethylmorpholino)methyl)-5-methylpiperazin-1-yl)acetyl)-7-(4-fluorobenzyl)-2-methyl-N-((tetrahydro-2H-pyran-4-yl)methyl)-2,3-dihydro-1H-pyrido[2,3-b][1,4]oxazine-6-carboxamide]
0.26	0.83	18.1	C[C@@H]1CN(CC(=O)N2c3cc(Cc4ccc(F)cc4)c(C(=O)N4CCN(C)CC4)nc3OC[C@@H]2C)[C@@H](CN2[C@H](C)COC[C@H]2C)CN1 [Compound 104]
0.19	0.36	7.7	C[C@@H]1CN(CC(=O)N2c3cc(Cc4ccc(F)cc4)c(CN4CC(O)C4)nc3OC[C@@H]2C)[C@@H](CN2[C@H](C)COC[C@H]2C)CN1 [Compound 114]
0.16	0.19	4.8	CC(C)C(=O)Nc1nc2c(cc1Cc1ccc(F)cc1)N(C(=O)CN1C[C@@H](C)NC[C@@H]1CN1[C@H](C)COC[C@H]1C)[C@@H](C)CO2 [Compound 118, N—((S)-1-(2-((2R,5R)-2-(((3R,5R)-3,5-dimethylmorpholino)methyl)-5-methylpiperazin-1-yl)acetyl)-7-(4-fluorobenzyl)-2-methyl-2,3-dihydro-1H-pyrido[2,3-b][1,4]oxazin-6-yl)isobutyramide]
0.34	0.63	4.6	C[C@@H]1CN(CC(=O)N2c3cc(Cc4ccc(F)cc4)c(NCC(F)(F)F)nc3OC[C@@H]2C)[C@@H](CN2[C@H](C)COC[C@H]2C)CN1 [Compound 112, 2-((2R,5R)-2-(((3R,5R)-3,5-dimethylmorpholino)methyl)-5-methylpiperazin-1-yl)-1-((S)-7-(4-fluorobenzyl)-2-methyl-6-((2,2,2-trifluoroethyl)amino)-2,3-dihydro-1H-pyrido[2,3-b][1,4]oxazin-1-yl)ethan-1-one]
0.19	0.46	4.6	C[C@@H]1CN(CC(=O)N2c3cc(Cc4ccc(F)cc4)c(C(=O)NC[C@@H]4CCCO4)nc3OC[C@@H]2C)[C@@H](CN2[C@H](C)COC[C@H]2C)CN1 [Compound 93]
0.29	0.66	43	CCOC[C@H]1COc2ncc(Cc3ccc(F)cc3)cc2N1C(=O)CN1C[C@@H](C)NC[C@@H]1CN1CCOC[C@H]1C [Compound 37, 1-((S)-2-(ethoxymethyl)-7-(4-fluorobenzyl)-2,3-dihydro-1H-pyrido[2,3-b][1,4]oxazin-1-yl)-2-((2R,5R)-5-methyl-2-(((R)-3-methylmorpholino)methyl)piperazin-1-yl)ethan-1-one]
16	44	561	C[C@@H]1CN(CC(=O)N2CC(C)(C)Oc3nc(Br)c(Cc4ccc(F)cc4)cc32)[C@@H](CN2CCOC[C@H]2C)CN1 [Compound 12, 1-(6-bromo-7-(4-fluorobenzyl)-3,3-dimethyl-2,3-dihydro-1H-pyrido[2,3-b][1,4]oxazin-1-yl)-2-((2R,5R)-5-methyl-2-(((R)-3-methylmorpholino)methyl)piperazin-1-yl)ethan-1-one]
0.24	0.32	22	C[C@@H]1CN(CC(=O)N2c3cc(Cc4ccc(F)cc4)cnc3OC[C@@H]2Cc2ccccc2)[C@@H](CN2CCOC[C@H]2C)CN1 [Compound 29, 1-((S)-2-benzyl-7-(4-fluorobenzyl)-2,3-dihydro-1H-pyrido[2,3-b][1,4]oxazin-1-yl)-2-((2R,5R)-5-methyl-2-(((R)-3-methylmorpholino)methyl)piperazin-1-yl)ethan-1-one]
0.13	0.18	6.9	C[C@@H]1CN(CC(=O)N2c3cc(Cc4ccc(F)cc4)cnc3OC[C@@H]2COCc2ccccc2)[C@@H](CN2[C@H](C)COC[C@H]2C)CN1 [Compound 23, 1-((S)-2-((benzyloxy)methyl)-7-(4-fluorobenzyl)-2,3-dihydro-1H-pyrido[2,3-b][1,4]oxazin-1-yl)-2-((2R,5R)-2-(((3R,5R)-3,5-dimethylmorpholino)methyl)-5-methylpiperazin-1-yl)ethan-1-one]
0.5	0.92	17	C[C@@H]1CN(CC(=O)N2CCOc3nc(Br)c(Cc4ccc(F)cc4)cc32)[C@@H](CN2CCOC[C@H]2C)CN1 [Compound 4, 1-(6-bromo-7-(4-fluorobenzyl)-2,3-dihydro-1H-pyrido[2,3-b][1,4]oxazin-1-yl)-2-((2R,5R)-5-methyl-2-(((R)-3-methylmorpholino)methyl)piperazin-1-yl)ethan-1-one]
0.9	2.5	24	C[C@@H]1CN(CC(=O)N2CCOc3ncc(Cc4ccc(F)cc4)cc32)[C@@H](CN2CCOC[C@H]2C)CN1 [Compound 2, 1-(7-(4-fluorobenzyl)-2,3-dihydro-1H-pyrido[2,3-b][1,4]oxazin-1-yl)-2-((2R,5R)-5-methyl-2-(((R)-3-methylmorpholino)methyl)piperazin-1-yl)ethan-1-one formate]
0.15	0.23	6.5	CCC(=O)Nc1nc2c(cc1Cc1ccc(F)cc1)N(C(=O)CN1C[C@@H](C)NC[C@@H]1CN1[C@H](C)COC[C@H]1C)[C@@H](C)CO2 [Compound 117]
1	2.2	30	C[C@@H]1CN(CC(=O)N2c3cc(Cc4ccc(F)cc4)c(CO)nc3OC[C@@H]2C)[C@@H](CN2CCOCC23CCC3)CN1 [Compound 56, 2-((2R,5R)-2-((8-oxa-5-azaspiro[3.5]nonan-5-yl)methyl)-5-methylpiperazin-1-yl)-1-((S)-7-(4-fluorobenzyl)-6-(hydroxymethyl)-2-methyl-2,3-dihydro-1H-pyrido[2,3-b][1,4]oxazin-1-yl)ethan-1-one]
0.17	0.36	3.1	COCCOc1nc2c(cc1Cc1ccc(F)cc1)N(C(=O)CN1C[C@@H](C)NC[C@@H]1CN1[C@H](C)COC[C@H]1C)[C@@H](C)CO2 [Compound 89, 2-((2R,5R)-2-(((3R,5R)-3,5-dimethylmorpholino)methyl)-5-methylpiperazin-1-yl)-1-((S)-7-(4-fluorobenzyl)-6-(2-methoxyethoxy)-2-methyl-2,3-dihydro-1H-pyrido[2,3-b][1,4]oxazin-1-yl)ethan-1-one]
0.26	0.57	7.9	C[C@@H]1CN(CC(=O)N2c3cc(Cc4ccc(F)cc4)c(C(=O)Nc4ccc(F)cc4)nc3OC[C@@H]2C)[C@@H](CN2[C@H](C)COC[C@H]2C)CN1 [Example 71, (S)-1-(2-((2R,5R)-2-(((3R,5R)-3,5-dimethylmorpholino)methyl)-5-methylpiperazin-1-yl)acetyl)-7-(4-fluorobenzyl)-N-(4-fluorophenyl)-2-methyl-2,3-dihydro-1H-pyrido[2,3-b][1,4]oxazine-6-carboxamide]
0.16	0.27	1.9	C[C@@H]1CN(CC(=O)N2c3cc(Cc4ccc(F)cc4)c(C(=O)NCC4CC4)nc3OC[C@@H]2C)[C@@H](CN2[C@H](C)COC[C@H]2C)CN1 [Example 70, (S)—N-(cyclopropylmethyl)-1-(2-((2R,5R)-2-(((3R,5R)-3,5-dimethylmorpholino)methyl)-5-methylpiperazin-1-yl)acetyl)-7-(4-fluorobenzyl)-2-methyl-2,3-dihydro-1H-pyrido[2,3-b][1,4]oxazine-6-carboxamide]
0.78	1.6	46	C[C@@H]1CN(CC(=O)N2c3cc(Cc4ccc(F)cc4)c(CO)nc3OC[C@@H]2C)[C@@H](CN2CCOC[C@@H]2C2CC2)CN1 [Example 84B]
